Assay results taken from the NIST ThermoML archive (doi:10.1016/j.tca.2011.02.027).
Numbers after ± are expanded uncertainties.

Test: molar heat capacity at constant pressure; xn = mol fraction of the nth substance listed
Settings: 101.3 kPa, Liquid, Large sample (1 g) DSC

## CCCCn1cc[n+](C)c1.[Br-] [1-butyl-3-methylimidazolium bromide] + O
303.2 K, x1 = 0.1
  molar heat capacity at constant pressure: 102.2 ± 4.3 J/K/mol
303.2 K, x1 = 0.2
  molar heat capacity at constant pressure: 123.4 ± 5.2 J/K/mol
303.2 K, x1 = 0.3
  molar heat capacity at constant pressure: 144.5 ± 6.1 J/K/mol
303.2 K, x1 = 0.4
  molar heat capacity at constant pressure: 165 ± 7 J/K/mol
303.2 K, x1 = 0.5
  molar heat capacity at constant pressure: 186.7 ± 7.9 J/K/mol
303.2 K, x1 = 0.6
  molar heat capacity at constant pressure: 209.6 ± 8.9 J/K/mol
308.2 K, x1 = 0.1
  molar heat capacity at constant pressure: 102.5 ± 4.3 J/K/mol
308.2 K, x1 = 0.2
  molar heat capacity at constant pressure: 124.1 ± 5.3 J/K/mol
308.2 K, x1 = 0.3
  molar heat capacity at constant pressure: 145.4 ± 6.2 J/K/mol
308.2 K, x1 = 0.4
  molar heat capacity at constant pressure: 166.1 ± 7 J/K/mol
308.2 K, x1 = 0.5
  molar heat capacity at constant pressure: 188 ± 8 J/K/mol
308.2 K, x1 = 0.6
  molar heat capacity at constant pressure: 211.2 ± 9 J/K/mol
313.2 K, x1 = 0.1
  molar heat capacity at constant pressure: 103 ± 4.4 J/K/mol
313.2 K, x1 = 0.2
  molar heat capacity at constant pressure: 124.9 ± 5.3 J/K/mol
313.2 K, x1 = 0.3
  molar heat capacity at constant pressure: 146.3 ± 6.2 J/K/mol
313.2 K, x1 = 0.4
  molar heat capacity at constant pressure: 167.1 ± 7.1 J/K/mol
313.2 K, x1 = 0.5
  molar heat capacity at constant pressure: 189.2 ± 8 J/K/mol
313.2 K, x1 = 0.6
  molar heat capacity at constant pressure: 212.9 ± 9 J/K/mol
318.2 K, x1 = 0.1
  molar heat capacity at constant pressure: 103.5 ± 4.4 J/K/mol
318.2 K, x1 = 0.2
  molar heat capacity at constant pressure: 125.8 ± 5.3 J/K/mol
318.2 K, x1 = 0.3
  molar heat capacity at constant pressure: 147.2 ± 6.2 J/K/mol
318.2 K, x1 = 0.4
  molar heat capacity at constant pressure: 168.1 ± 7.1 J/K/mol
318.2 K, x1 = 0.5
  molar heat capacity at constant pressure: 190.7 ± 8.1 J/K/mol
318.2 K, x1 = 0.6
  molar heat capacity at constant pressure: 214.5 ± 9.1 J/K/mol
323.2 K, x1 = 0.1
  molar heat capacity at constant pressure: 104 ± 4.4 J/K/mol
323.2 K, x1 = 0.2
  molar heat capacity at constant pressure: 126.6 ± 5.4 J/K/mol
323.2 K, x1 = 0.3
  molar heat capacity at constant pressure: 148.2 ± 6.3 J/K/mol
323.2 K, x1 = 0.4
  molar heat capacity at constant pressure: 169.2 ± 7.2 J/K/mol
323.2 K, x1 = 0.5
  molar heat capacity at constant pressure: 191.8 ± 8.1 J/K/mol
323.2 K, x1 = 0.6
  molar heat capacity at constant pressure: 216.2 ± 9.2 J/K/mol
328.2 K, x1 = 0.1
  molar heat capacity at constant pressure: 104.5 ± 4.4 J/K/mol
328.2 K, x1 = 0.2
  molar heat capacity at constant pressure: 127.5 ± 5.4 J/K/mol
328.2 K, x1 = 0.3
  molar heat capacity at constant pressure: 149.2 ± 6.3 J/K/mol
328.2 K, x1 = 0.4
  molar heat capacity at constant pressure: 170.4 ± 7.2 J/K/mol
328.2 K, x1 = 0.5
  molar heat capacity at constant pressure: 193.3 ± 8.2 J/K/mol
328.2 K, x1 = 0.6
  molar heat capacity at constant pressure: 217.9 ± 9.2 J/K/mol
333.2 K, x1 = 0.1
  molar heat capacity at constant pressure: 104.8 ± 4.4 J/K/mol
333.2 K, x1 = 0.2
  molar heat capacity at constant pressure: 128.3 ± 5.4 J/K/mol
333.2 K, x1 = 0.3
  molar heat capacity at constant pressure: 150.1 ± 6.4 J/K/mol
333.2 K, x1 = 0.4
  molar heat capacity at constant pressure: 171.6 ± 7.3 J/K/mol
333.2 K, x1 = 0.5
  molar heat capacity at constant pressure: 194.6 ± 8.3 J/K/mol
333.2 K, x1 = 0.6
  molar heat capacity at constant pressure: 219.5 ± 9.3 J/K/mol
338.2 K, x1 = 0.1
  molar heat capacity at constant pressure: 105.4 ± 4.5 J/K/mol
338.2 K, x1 = 0.2
  molar heat capacity at constant pressure: 129.2 ± 5.5 J/K/mol
338.2 K, x1 = 0.3
  molar heat capacity at constant pressure: 151.1 ± 6.4 J/K/mol
338.2 K, x1 = 0.4
  molar heat capacity at constant pressure: 172.9 ± 7.3 J/K/mol
338.2 K, x1 = 0.5
  molar heat capacity at constant pressure: 196.1 ± 8.3 J/K/mol
338.2 K, x1 = 0.6
  molar heat capacity at constant pressure: 221.3 ± 9.4 J/K/mol
343.2 K, x1 = 0.1
  molar heat capacity at constant pressure: 105.8 ± 4.5 J/K/mol
343.2 K, x1 = 0.2
  molar heat capacity at constant pressure: 130 ± 5.5 J/K/mol
343.2 K, x1 = 0.3
  molar heat capacity at constant pressure: 152.1 ± 6.5 J/K/mol
343.2 K, x1 = 0.4
  molar heat capacity at constant pressure: 173.9 ± 7.4 J/K/mol
343.2 K, x1 = 0.5
  molar heat capacity at constant pressure: 197.3 ± 8.4 J/K/mol
343.2 K, x1 = 0.6
  molar heat capacity at constant pressure: 223.1 ± 9.5 J/K/mol
348.2 K, x1 = 0.1
  molar heat capacity at constant pressure: 106.3 ± 4.5 J/K/mol
348.2 K, x1 = 0.2
  molar heat capacity at constant pressure: 131.1 ± 5.6 J/K/mol
348.2 K, x1 = 0.3
  molar heat capacity at constant pressure: 153.1 ± 6.5 J/K/mol
348.2 K, x1 = 0.4
  molar heat capacity at constant pressure: 175.2 ± 7.4 J/K/mol
348.2 K, x1 = 0.5
  molar heat capacity at constant pressure: 198.6 ± 8.4 J/K/mol
348.2 K, x1 = 0.6
  molar heat capacity at constant pressure: 224.9 ± 9.5 J/K/mol
353.2 K, x1 = 0.1
  molar heat capacity at constant pressure: 106.8 ± 4.5 J/K/mol
353.2 K, x1 = 0.2
  molar heat capacity at constant pressure: 131.9 ± 5.6 J/K/mol
353.2 K, x1 = 0.3
  molar heat capacity at constant pressure: 154.1 ± 6.5 J/K/mol
353.2 K, x1 = 0.4
  molar heat capacity at constant pressure: 176.2 ± 7.5 J/K/mol
353.2 K, x1 = 0.5
  molar heat capacity at constant pressure: 200 ± 8.5 J/K/mol
353.2 K, x1 = 0.6
  molar heat capacity at constant pressure: 226.5 ± 9.6 J/K/mol
353.2 K, x1 = 1
  molar heat capacity at constant pressure: 334.8 ± 14 J/K/mol
358.2 K, x1 = 1
  molar heat capacity at constant pressure: 338.1 ± 14 J/K/mol
363.2 K, x1 = 1
  molar heat capacity at constant pressure: 341.1 ± 14 J/K/mol
368.2 K, x1 = 1
  molar heat capacity at constant pressure: 344.6 ± 15 J/K/mol
373.2 K, x1 = 1
  molar heat capacity at constant pressure: 347.5 ± 15 J/K/mol
378.2 K, x1 = 1
  molar heat capacity at constant pressure: 350.6 ± 15 J/K/mol
383.2 K, x1 = 1
  molar heat capacity at constant pressure: 354.1 ± 15 J/K/mol
388.2 K, x1 = 1
  molar heat capacity at constant pressure: 356.7 ± 15 J/K/mol
393.2 K, x1 = 1
  molar heat capacity at constant pressure: 359.9 ± 15 J/K/mol
398.2 K, x1 = 1
  molar heat capacity at constant pressure: 363.4 ± 15 J/K/mol
403.2 K, x1 = 1
  molar heat capacity at constant pressure: 366.4 ± 16 J/K/mol
